Test systems include EKVX NSCLC; HOP-62 NSCLC; HT29 colon; KM12 colon; MALME-3M melanoma; MCF7 breast; MOLT-4 leukemia; SF-539 CNS; SK-OV-3 ovarian; SR leukemia.
Holding throughout (assay): NCI tumour cell line growth inhibition, 48 h

The results in this text go back to PubChem BioAssay (NCI).

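Compound exposure: 48 hours, 5 concentrations, 96-well plates. GI50 is the concentration that inhibits growth by half. At the TGI there is no net growth.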

Turning to `NCCCCN(Cc1nc2ccccc2[nH]1)[C@H]1CCCc2cccnc21`, the GI50 in the assay on EKVX NSCLC is 15.2 µM; in the assay with HOP-62 NSCLC, 11.4 µM; with HT29 colon, 6.29 µM; in the assay on KM12 colon it was 15.5 µM; in the assay on MALME-3M melanoma it was 13.2 µM; in the assay with MCF7 breast, 17.8 µM. Besides, the GI50 in the assay with MOLT-4 leukemia was 17.5 µM; with SF-539 CNS, 13.3 µM; in the assay with SK-OV-3 ovarian it was 18.6 µM; in the assay with SR leukemia, 4.52 µM. Moreover, the TGI in the assay on EKVX NSCLC was greater than 100 µM; in the assay on HOP-62 NSCLC, greater than 100 µM; in the assay on HT29 colon, 34.1 µM; in the assay on KM12 colon, greater than 100 µM; with MALME-3M melanoma, 28.2 µM; in the assay with MCF7 breast, greater than 72.7 µM. Further, the TGI was 69.4 µM with MOLT-4 leukemia, 27.6 µM in the assay with SF-539 CNS, greater than 86.5 µM with SK-OV-3 ovarian and 24.8 µM in the assay with SR leukemia.
Consider `COc1ccc(/C=C/C(=O)c2cc3c(N)c(C(=O)Nc4ccccc4)sc3nc2C)cc1`, for which the GI50 was 0.752 µM in the assay on EKVX NSCLC; 0.252 µM with HOP-62 NSCLC; 0.179 µM in the assay with HT29 colon; 0.204 µM with KM12 colon; 1.7 µM with MALME-3M melanoma; 0.128 µM in the assay on MCF7 breast. Further, the GI50 in the assay with MOLT-4 leukemia was 0.318 µM; with SF-539 CNS, 0.105 µM; with SK-OV-3 ovarian, 0.248 µM; with SR leukemia, 0.207 µM. For the same compound, the TGI with EKVX NSCLC is greater than 50 µM; with HOP-62 NSCLC, greater than 22.5 µM; in the assay on HT29 colon it was greater than 26.6 µM; in the assay with KM12 colon, 7.18 µM; in the assay with MALME-3M melanoma it was greater than 50 µM; in the assay on MCF7 breast, greater than 50 µM. The TGI in the assay with MOLT-4 leukemia was greater than 50 µM; in the assay on SF-539 CNS, 0.286 µM; in the assay with SK-OV-3 ovarian it was greater than 50 µM; with SR leukemia, greater than 50 µM.
As for `C=C1C(=O)O[C@H]2[C@H]1CC/C(CNS(=O)(=O)c1cccc3ccccc13)=C\CC[C@@]1(C)O[C@@H]21`, the GI50 was 2.53 µM in the assay with EKVX NSCLC; 13.4 µM with HOP-62 NSCLC; 1.85 µM in the assay with HT29 colon; 9.76 µM in the assay on KM12 colon; 1.77 µM in the assay with MALME-3M melanoma; 1.36 µM in the assay with MCF7 breast. The GI50 with MOLT-4 leukemia is 1.87 µM; with SF-539 CNS it was 1.77 µM; with SK-OV-3 ovarian it was 12.1 µM; in the assay on SR leukemia, 1.31 µM. The TGI in the assay on EKVX NSCLC worked out at 10.3 µM; with HOP-62 NSCLC, 27.9 µM; in the assay on HT29 colon, 3.86 µM; in the assay on KM12 colon it was 25.8 µM; with MALME-3M melanoma, 4.09 µM; in the assay with MCF7 breast, 3.14 µM. Further, the TGI came to 5.27 µM with MOLT-4 leukemia, 4.02 µM in the assay on SF-539 CNS, 24.5 µM in the assay with SK-OV-3 ovarian and 6.11 µM in the assay on SR leukemia.
In the case of `Clc1nc(Cl)c(Cc2ccccc2)c(Cl)n1`, the TGI turned out to be 33.2 µM in the assay with EKVX NSCLC; 20.4 µM in the assay with HOP-62 NSCLC; 25.3 µM in the assay with HT29 colon; 66.3 µM in the assay with KM12 colon; 63.2 µM with MALME-3M melanoma; 21.4 µM in the assay on MCF7 breast. For the same compound, the TGI in the assay with MOLT-4 leukemia was greater than 100 µM; in the assay with SF-539 CNS it was 20 µM; in the assay with SK-OV-3 ovarian, 28.9 µM; in the assay on SR leukemia, greater than 100 µM.
Consider `OC(CNC1CCCC1)Cn1c2ccccc2c2ccccc21` (stereo not drawn), for which the GI50 is 42.3 µM with EKVX NSCLC; 18.9 µM in the assay with HOP-62 NSCLC; greater than 100 µM with HT29 colon; greater than 100 µM in the assay with KM12 colon; 37 µM in the assay with MALME-3M melanoma; greater than 100 µM in the assay with MCF7 breast. For the same compound, the GI50 in the assay on MOLT-4 leukemia was greater than 100 µM; in the assay on SF-539 CNS it was 24.4 µM; in the assay on SK-OV-3 ovarian, 20.4 µM; in the assay with SR leukemia, greater than 100 µM. Further, the TGI with EKVX NSCLC was greater than 100 µM; in the assay on HOP-62 NSCLC it was 42.6 µM; in the assay on HT29 colon it was greater than 100 µM; with KM12 colon, greater than 100 µM; with MALME-3M melanoma, greater than 100 µM; in the assay with MCF7 breast, greater than 100 µM. Also, the TGI in the assay on MOLT-4 leukemia was greater than 100 µM; in the assay with SF-539 CNS, 82.9 µM; in the assay on SK-OV-3 ovarian, 43.4 µM; with SR leukemia, greater than 100 µM.
Consider `COC(=O)c1cc2oc(/C=C3\SC(=S)N(NC(C)=O)C3=O)cc2n1Cc1ccccc1`, for which the GI50 in the assay with EKVX NSCLC was 3.08 µM; in the assay with HOP-62 NSCLC, 9.72 µM; in the assay on HT29 colon, 3.47 µM; with KM12 colon, 2.95 µM; in the assay on MCF7 breast it was 2.53 µM; with MOLT-4 leukemia, 1.97 µM. The GI50 in the assay with SF-539 CNS was 2.79 µM; in the assay with SK-OV-3 ovarian, 6.33 µM; in the assay on SR leukemia it was 1.11 µM. Moreover, the TGI with EKVX NSCLC is 15.3 µM; in the assay on HOP-62 NSCLC, 20.7 µM; in the assay with HT29 colon, 12.8 µM; in the assay with KM12 colon it was 12.8 µM; with MCF7 breast it was greater than 50 µM; in the assay on MOLT-4 leukemia, greater than 50 µM. The TGI was 14 µM with SF-539 CNS, 15.5 µM in the assay on SK-OV-3 ovarian and greater than 50 µM in the assay with SR leukemia.
For the compound `COC(=O)[C@@]1(O)C[C@H]2O[C@]1(C)n1c3ccccc3c3c4c(c5c6ccccc6n2c5c31)C(=O)NC4`, the GI50 with EKVX NSCLC was 1.92 µM; in the assay with HOP-62 NSCLC, 0.169 µM; in the assay with HT29 colon, 0.212 µM; in the assay on KM12 colon it was 0.0269 µM; with MALME-3M melanoma, 0.186 µM; with MCF7 breast it was 0.194 µM. For the same compound, the GI50 with MOLT-4 leukemia was 0.0678 µM; in the assay on SF-539 CNS, 0.356 µM; in the assay on SK-OV-3 ovarian, 0.0336 µM; in the assay with SR leukemia it was 0.0686 µM. For the same compound, the TGI in the assay on EKVX NSCLC was determined as 7.58 µM; with HOP-62 NSCLC it was 1.81 µM; with HT29 colon, 2.09 µM; with KM12 colon, 1.07 µM; in the assay on MALME-3M melanoma, 1.52 µM; in the assay with MCF7 breast it was 4.34 µM. In addition, the TGI came to 0.825 µM in the assay on MOLT-4 leukemia, 1.42 µM in the assay with SF-539 CNS, 0.926 µM with SK-OV-3 ovarian and 1.75 µM in the assay with SR leukemia.
With `CCOC1C=CCCO1` (stereo not drawn), the TGI with EKVX NSCLC, in the assay on HOP-62 NSCLC, in the assay on HT29 colon, in the assay with KM12 colon, in the assay with MALME-3M melanoma and with MCF7 breast was greater than 100 µM each time. For the same compound, the TGI in the assay on MOLT-4 leukemia, in the assay on SF-539 CNS, with SK-OV-3 ovarian and in the assay on SR leukemia was greater than 100 µM throughout.
